# In PubChem BioAssay AID180 (DTP/NCI, 2004):
# Several values for one entry are separate records, joined by “and”; a condition that tells them apart may be missing. Equal entries are not always repeated.
# Tested on: BDF1 mice, Adenocarcinoma 755 s.c., tumor weight T/C
# Assay: NCI In Vivo Anticancer Drug Screen. Data for tumor model Adenocarcinoma 755 (subcutaneous) in B6D2F1 (BDF1) mice
# Conditions: endpoint: mean tumor weight, higher = larger tumour
# Outline: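 Values express treated (T) relative to vehicle-dosed control (C) animals, based on survival or tumour size measured after compound treatment of mice bearing a transplanted tumour.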
# [1] = dose: 12.5 mg/kg/injection, schedule: Q01DX011 (ip), vehicle: other
# [2] = dose: 30.0 mg/kg/injection, schedule: Q01DX011 (ip), vehicle: carboxymethylcellulose (CMC)
# [3] = dose: 800.0 mg/kg/injection, schedule: Q01DX011 (ip), vehicle: saline
# [4] = dose: 125.0 mg/kg/injection, schedule: Q01DX011 (ip), vehicle: carboxymethylcellulose (CMC)
compound,measurement,setting,value
C[N+]1(C)CCN(C(=O)CCCl)CC1,T/C,"dose: 3.1 mg/kg/injection, schedule: Q01DX011 (ip), vehicle: other",47 % of control
same,T/C,"dose: 6.2 mg/kg/injection, schedule: Q01DX011 (ip), vehicle: other",93 % of control
same,T/C,[1],66 % of control
Fc1cccc(CSc2ncnc3c2ncn3C2CCCCO2)c1 (centres undefined),T/C,"dose: 20.0 mg/kg/injection, schedule: Q01DX011 (ip), vehicle: methylcellulose (MC)",13 % of control
same,T/C,"dose: 65.0 mg/kg/injection, schedule: Q01DX011 (ip), vehicle: methylcellulose (MC)",1 % of control
CC(=O)N(c1ccccc1)c1ccccc1,T/C,"dose: 3.12 mg/kg/injection, schedule: Q01DX011 (ip), vehicle: other",83 % of control
same,T/C,"dose: 6.25 mg/kg/injection, schedule: Q01DX011 (ip), vehicle: other",92 % of control
same,T/C,[1],80 % of control
same,T/C,"dose: 25.0 mg/kg/injection, schedule: Q01DX011 (ip), vehicle: other",97 % of control
O=c1[nH]c2cnc(Cl)nc2[nH]1,T/C,[2],116 % of control
same,T/C,"dose: 60.0 mg/kg/injection, schedule: Q01DX011 (ip), vehicle: carboxymethylcellulose (CMC)",85 % of control
same,T/C,"dose: 120.0 mg/kg/injection, schedule: Q01DX011 (ip), vehicle: carboxymethylcellulose (CMC)",168 % of control
O=C(Nc1ccc(C2=NC3CCCCC3N2)cc1)c1cccc(C(=O)Nc2ccc(C3=NC4CCCCC4N3)cc2)c1 (centres undefined),T/C,"dose: 15.0 mg/kg/injection, schedule: Q01DX011 (ip), vehicle: methylcellulose (MC)",73 % of control
same,T/C,"dose: 30.0 mg/kg/injection, schedule: Q01DX011 (ip), vehicle: methylcellulose (MC)",81 % of control
same,T/C,"dose: 60.0 mg/kg/injection, schedule: Q01DX011 (ip), vehicle: methylcellulose (MC)",73 % of control
same,T/C,"dose: 120.0 mg/kg/injection, schedule: Q01DX011 (ip), vehicle: methylcellulose (MC)",59 % of control
C[C@]12C=CC(=O)C=C1CC[C@@H]1[C@@H]2[C@@H](O)C[C@@]2(C)[C@H]1CC[C@]2(O)C(=O)CF,T/C,"dose: 8.0 mg/kg/injection, schedule: Q01DX011 (sc), vehicle: steriod suspending solution",64 % of control
same,T/C,"dose: 16.0 mg/kg/injection, schedule: Q01DX011 (sc), vehicle: steriod suspending solution",22 % of control
same,T/C,"dose: 132.0 mg/kg/injection, schedule: Q01DX011 (sc), vehicle: steriod suspending solution",30 % of control
same,T/C,"dose: 264.0 mg/kg/injection, schedule: Q01DX011 (sc), vehicle: steriod suspending solution",5 % of control
CNc1nc(SCc2ccccc2)ncc1C,T/C,"dose: 31.0 mg/kg/injection, schedule: Q01DX011 (ip), vehicle: methylcellulose (MC)",60 % of control
same,T/C,"dose: 125.0 mg/kg/injection, schedule: Q01DX011 (ip), vehicle: methylcellulose (MC)",82 % of control
same,T/C,"dose: 250.0 mg/kg/injection, schedule: Q01DX011 (ip), vehicle: methylcellulose (MC)",52 % of control
Cn1cnc(=S)c2[nH]cnc21,T/C,"dose: 300.0 mg/kg/injection, schedule: Q01DX011 (ip), vehicle: carboxymethylcellulose (CMC)",61 % of control
Nc1nc(=S)c2ncn(C3OC(COC(=O)c4ccccc4)C(OC(=O)c4ccccc4)C3OC(=O)c3ccccc3)c2[nH]1 (centres undefined),T/C,"dose: 12.5 mg/kg/injection, schedule: Q01DX011 (ip), vehicle: methylcellulose (MC)",52 % of control
same,T/C,"dose: 25.0 mg/kg/injection, schedule: Q01DX011 (ip), vehicle: methylcellulose (MC)",49 % of control
same,T/C,"dose: 50.0 mg/kg/injection, schedule: Q01DX011 (ip), vehicle: methylcellulose (MC)",7 % of control
same,T/C,"dose: 100.0 mg/kg/injection, schedule: Q01DX011 (ip), vehicle: methylcellulose (MC)",3 % of control
C[C@]12CC[C@@H]3c4ccc(O)cc4CC[C@H]3[C@@H]1CC[C@@H]2O,T/C,"dose: 125.0 mg/kg/injection, schedule: Q01DX011 (sc), vehicle: steriod suspending solution",77 % of control
same,T/C,"dose: 250.0 mg/kg/injection, schedule: Q01DX011 (sc), vehicle: steriod suspending solution",32 % of control
same,T/C,"dose: 500.0 mg/kg/injection, schedule: Q01DX011 (sc), vehicle: steriod suspending solution",65 % of control
same,T/C,"dose: 1000.0 mg/kg/injection, schedule: Q01DX011 (sc), vehicle: steriod suspending solution",42 % of control
CCOc1ccccc1C(=O)Nc1ccc(Br)cc1,T/C,"dose: 12.0 mg/kg/injection, schedule: Q01DX011 (ip), vehicle: carboxymethylcellulose (CMC)",66 % of control
same,T/C,"dose: 25.0 mg/kg/injection, schedule: Q01DX011 (ip), vehicle: carboxymethylcellulose (CMC)",45 % of control
same,T/C,"dose: 50.0 mg/kg/injection, schedule: Q01DX011 (ip), vehicle: carboxymethylcellulose (CMC)",40 % of control
same,T/C,"dose: 100.0 mg/kg/injection, schedule: Q01DX011 (ip), vehicle: carboxymethylcellulose (CMC)",28 % of control and 50 % of control
same,T/C,"dose: 200.0 mg/kg/injection, schedule: Q01DX011 (ip), vehicle: carboxymethylcellulose (CMC)",17 % of control and 23 % of control
same,T/C,"dose: 400.0 mg/kg/injection, schedule: Q01DX011 (ip), vehicle: carboxymethylcellulose (CMC)",7 % of control and 32 % of control
same,T/C,"dose: 400.0 mg/kg/injection, schedule: Q01DX011 (ip), vehicle: saline",32 % of control
same,T/C,"dose: 700.0 mg/kg/injection, schedule: Q01DX011 (ip), vehicle: carboxymethylcellulose (CMC)",22 % of control
same,T/C,"dose: 800.0 mg/kg/injection, schedule: Q01DX011 (ip), vehicle: carboxymethylcellulose (CMC)",42 % of control
same,T/C,[3],21 % of control
Cc1nc2nc(N)nc(N)c2nc1C,T/C,"dose: 12.62 mg/kg/injection, schedule: Q01DX011 (ip), vehicle: carboxymethylcellulose (CMC)",67 % of control
same,T/C,"dose: 15.63 mg/kg/injection, schedule: Q01DX011 (ip), vehicle: carboxymethylcellulose (CMC)",50 % of control
same,T/C,"dose: 62.5 mg/kg/injection, schedule: Q01DX011 (ip), vehicle: carboxymethylcellulose (CMC)",122 % of control and 123 % of control
same,T/C,[4],58 % of control
Nc1nc(SCC(=O)c2ccccc2)c2ncn(C3OC(CO)C(O)C3O)c2n1 (centres undefined),T/C,"dose: 37.5 mg/kg/injection, schedule: Q01DX011 (ip), vehicle: methylcellulose (MC)",15 % of control
same,T/C,"dose: 75.0 mg/kg/injection, schedule: Q01DX011 (ip), vehicle: methylcellulose (MC)",5 % of control
same,T/C,"dose: 150.0 mg/kg/injection, schedule: Q01DX011 (ip), vehicle: methylcellulose (MC)",5 % of control
c1ccc(CNc2ncnc3[nH]ncc23)cc1,T/C,"dose: 4.0 mg/kg/injection, schedule: Q01DX011 (ip), vehicle: carboxymethylcellulose (CMC)",83 % of control
same,T/C,"dose: 8.0 mg/kg/injection, schedule: Q01DX011 (ip), vehicle: carboxymethylcellulose (CMC)",69 % of control
same,T/C,"dose: 16.0 mg/kg/injection, schedule: Q01DX011 (ip), vehicle: carboxymethylcellulose (CMC)",22 % of control
same,T/C,"dose: 31.25 mg/kg/injection, schedule: Q01DX011 (ip), vehicle: carboxymethylcellulose (CMC)",54 % of control
Cc1nc(Cl)c(C#N)c(C(F)(F)F)c1[N+](=O)[O-],T/C,[2],59 % of control
CC(=O)[C@H]1[C@H](C)C[C@H]2[C@@H]3CCC4=CC(=O)CC[C@]4(C)[C@@]3(F)[C@@H](O)C[C@@]21C,T/C,"dose: 5.31 mg/kg/injection, schedule: Q01DX011 (sc), vehicle: steriod suspending solution",108 % of control
same,T/C,"dose: 6.0 mg/kg/injection, schedule: Q01DX011 (sc), vehicle: steriod suspending solution",62 % of control
same,T/C,"dose: 10.62 mg/kg/injection, schedule: Q01DX011 (sc), vehicle: steriod suspending solution",85 % of control
same,T/C,"dose: 12.0 mg/kg/injection, schedule: Q01DX011 (sc), vehicle: steriod suspending solution",27 % of control
same,T/C,"dose: 21.25 mg/kg/injection, schedule: Q01DX011 (sc), vehicle: steriod suspending solution",86 % of control
same,T/C,"dose: 25.0 mg/kg/injection, schedule: Q01DX011 (sc), vehicle: steriod suspending solution",23 % of control
same,T/C,"dose: 42.5 mg/kg/injection, schedule: Q01DX011 (sc), vehicle: steriod suspending solution",39 % of control and 48 % of control
same,T/C,"dose: 50.0 mg/kg/injection, schedule: Q01DX011 (sc), vehicle: steriod suspending solution",16 % of control
same,T/C,"dose: 85.0 mg/kg/injection, schedule: Q01DX011 (sc), vehicle: steriod suspending solution",17 % of control
same,T/C,"dose: 100.0 mg/kg/injection, schedule: Q01DX011 (sc), vehicle: steriod suspending solution",12 % of control
same,T/C,"dose: 170.0 mg/kg/injection, schedule: Q01DX011 (sc), vehicle: steriod suspending solution",18 % of control
same,T/C,"dose: 340.0 mg/kg/injection, schedule: Q01DX011 (sc), vehicle: steriod suspending solution",18 % of control and 23 % of control
same,T/C,"dose: 680.0 mg/kg/injection, schedule: Q01DX011 (sc), vehicle: steriod suspending solution",8 % of control and 26 % of control
same,T/C,"dose: 1360.0 mg/kg/injection, schedule: Q01DX011 (sc), vehicle: steriod suspending solution",4 % of control
CCC(=O)N(CC)CC,T/C,"dose: 250.0 mg/kg/injection, schedule: Q01DX011 (ip), vehicle: other",100 % of control
CS(=O)(=O)OCC(O)C(O)COS(C)(=O)=O (centres undefined),T/C,[4],65 % of control
same,T/C,"dose: 200.0 mg/kg/injection, schedule: Q01DX011 (ip), vehicle: saline",66 % of control
same,T/C,"dose: 250.0 mg/kg/injection, schedule: Q01DX011 (ip), vehicle: carboxymethylcellulose (CMC)",20 % of control
same,T/C,"dose: 500.0 mg/kg/injection, schedule: Q01DX011 (ip), vehicle: carboxymethylcellulose (CMC)",6 % of control
same,T/C,[3],17 % of control
